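Briefly, cells in 96-well plates were exposed to five compound concentrations for 48 h, and endpoints were estimated by linear interpolation. TGI is the concentration that stops growth completely.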
What was measured:
Experiment in all cases: DTP human tumour cell line panel, 48 h
CCRF-CEM leukemia = test system: CCRF-CEM leukemia
HCT-15 colon = test system: HCT-15 colon
HCT-116 colon = test system: HCT-116 colon
OVCAR-8 ovarian = test system: OVCAR-8 ovarian
RPMI-8226 leukemia = test system: RPMI-8226 leukemia
LOX IMVI melanoma = test system: LOX IMVI melanoma
COLO 205 colon = test system: COLO 205 colon
SF-268 CNS = test system: SF-268 CNS
NCI-H460 lung = test system: NCI-H460 lung
KM20L2 colon = test system: KM20L2 colon
OVCAR-4 ovarian = test system: OVCAR-4 ovarian
DLD-1 colon = test system: DLD-1 colon
K-562 leukemia = test system: K-562 leukemia
MALME-3M melanoma = test system: MALME-3M melanoma
DMS 273 small cell lung = test system: DMS 273 small cell lung
M14 melanoma = test system: M14 melanoma
U251 CNS = test system: U251 CNS
786-0 renal = test system: 786-0 renal
KM12 colon = test system: KM12 colon
SNB-75 CNS = test system: SNB-75 CNS
SK-MEL-5 melanoma = test system: SK-MEL-5 melanoma
NCI-H23 lung = test system: NCI-H23 lung
LXFL 529 NSCLC = test system: LXFL 529 NSCLC
SK-MEL-2 melanoma = test system: SK-MEL-2 melanoma
UACC-62 melanoma = test system: UACC-62 melanoma
RXF-631 renal = test system: RXF-631 renal
TK-10 renal = test system: TK-10 renal
UACC-257 melanoma = test system: UACC-257 melanoma
DMS 114 small cell lung = test system: DMS 114 small cell lung
SK-MEL-28 melanoma = test system: SK-MEL-28 melanoma
SNB-19 CNS = test system: SNB-19 CNS
SW-620 colon = test system: SW-620 colon
OVCAR-3 ovarian = test system: OVCAR-3 ovarian
HOP-62 NSCLC = test system: HOP-62 NSCLC
HT29 colon = test system: HT29 colon
HCC-2998 colon = test system: HCC-2998 colon
M19-MEL melanoma = test system: M19-MEL melanoma
XF 498 CNS = test system: XF 498 CNS
UO-31 renal = test system: UO-31 renal
SF-539 CNS = test system: SF-539 CNS
SN12C renal = test system: SN12C renal
ACHN renal = test system: ACHN renal
HOP-92 NSCLC = test system: HOP-92 NSCLC
OVCAR-5 ovarian = test system: OVCAR-5 ovarian
A498 renal = test system: A498 renal
A549 NSCLC = test system: A549 NSCLC
SK-OV-3 ovarian = test system: SK-OV-3 ovarian
MOLT-4 leukemia = test system: MOLT-4 leukemia
NCI-H522 lung = test system: NCI-H522 lung
SF-295 CNS = test system: SF-295 CNS
NCI-H226 lung = test system: NCI-H226 lung
HOP-18 NSCLC = test system: HOP-18 NSCLC
HL-60(TB) leukemia = test system: HL-60(TB) leukemia
SR leukemia = test system: SR leukemia
CAKI-1 renal = test system: CAKI-1 renal
IGROV1 ovarian = test system: IGROV1 ovarian
SNB-78 CNS = test system: SNB-78 CNS
EKVX NSCLC = test system: EKVX NSCLC

Measured: TGI

C[C@]12CCC(=O)C[C@H]1CCC(O)[C@@H]2Br (some centres undefined)
> 100 µM: CCRF-CEM leukemia | HCT-15 colon | HCT-116 colon | OVCAR-8 ovarian | RPMI-8226 leukemia | LOX IMVI melanoma | COLO 205 colon | SF-268 CNS | NCI-H460 lung | KM20L2 colon | OVCAR-4 ovarian | DLD-1 colon | K-562 leukemia | MALME-3M melanoma | DMS 273 small cell lung | M14 melanoma | U251 CNS | 786-0 renal | KM12 colon | SNB-75 CNS | SK-MEL-5 melanoma | NCI-H23 lung | LXFL 529 NSCLC | SK-MEL-2 melanoma | UACC-62 melanoma | RXF-631 renal | TK-10 renal | UACC-257 melanoma | DMS 114 small cell lung | SK-MEL-28 melanoma | SNB-19 CNS | SW-620 colon | OVCAR-3 ovarian | HOP-62 NSCLC | HT29 colon | HCC-2998 colon | M19-MEL melanoma | XF 498 CNS | UO-31 renal | SF-539 CNS | SN12C renal | ACHN renal | HOP-92 NSCLC | OVCAR-5 ovarian | A498 renal | A549 NSCLC | SK-OV-3 ovarian | MOLT-4 leukemia | NCI-H522 lung | SF-295 CNS | NCI-H226 lung | HOP-18 NSCLC | HL-60(TB) leukemia | SR leukemia | CAKI-1 renal | IGROV1 ovarian

CCOC(=O)/C(=C/c1ccc(C(F)(F)F)cc1)N(CC)CC
> 100 µM: CCRF-CEM leukemia | HCT-15 colon | HCT-116 colon | OVCAR-8 ovarian | RPMI-8226 leukemia | LOX IMVI melanoma | COLO 205 colon | SF-268 CNS | NCI-H460 lung | OVCAR-4 ovarian | DLD-1 colon | K-562 leukemia | MALME-3M melanoma | M14 melanoma | U251 CNS | 786-0 renal | KM12 colon | SNB-75 CNS | SK-MEL-5 melanoma | SNB-78 CNS | NCI-H23 lung | LXFL 529 NSCLC | SK-MEL-2 melanoma | UACC-62 melanoma | RXF-631 renal | TK-10 renal | UACC-257 melanoma | DMS 114 small cell lung | SK-MEL-28 melanoma | SW-620 colon | HOP-62 NSCLC | HT29 colon | HCC-2998 colon | XF 498 CNS | UO-31 renal | SF-539 CNS | SN12C renal | ACHN renal | HOP-92 NSCLC | OVCAR-5 ovarian | A498 renal | A549 NSCLC | SK-OV-3 ovarian | EKVX NSCLC | MOLT-4 leukemia | NCI-H522 lung | SF-295 CNS | NCI-H226 lung | HOP-18 NSCLC | HL-60(TB) leukemia | SR leukemia | CAKI-1 renal | IGROV1 ovarian
